Our source for the Ki values is US7456164B2, “3- or 4-monosubtituted phenol and thiophenol derivatives useful as H3 ligands” (Pfizer, Inc, priority 2004, dated 2008).

As a reminder, the Ki is the equilibrium dissociation constant of an inhibitor or competing ligand from its target.

T1 sequence (Q9Y5N1 whole entry): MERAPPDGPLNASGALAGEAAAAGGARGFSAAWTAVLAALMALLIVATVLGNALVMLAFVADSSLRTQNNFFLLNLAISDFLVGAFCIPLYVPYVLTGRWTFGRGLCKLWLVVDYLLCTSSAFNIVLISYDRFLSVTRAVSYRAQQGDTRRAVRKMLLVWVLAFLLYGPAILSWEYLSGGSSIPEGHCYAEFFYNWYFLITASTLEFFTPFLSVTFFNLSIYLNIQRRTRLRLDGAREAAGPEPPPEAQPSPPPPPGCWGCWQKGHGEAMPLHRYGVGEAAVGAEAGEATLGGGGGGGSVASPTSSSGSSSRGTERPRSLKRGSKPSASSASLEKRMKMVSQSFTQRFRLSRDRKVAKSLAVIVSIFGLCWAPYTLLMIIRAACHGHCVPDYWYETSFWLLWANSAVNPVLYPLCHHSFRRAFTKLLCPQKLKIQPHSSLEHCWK

The first test concerns the target T1, human histamine H3 receptor (Homo sapiens, UniProt Q9Y5N1).
T1 construct: expressed in transfected cells
Description: H3 cell based functional assay (cAMP, β-lactamase reporter gene).
Conditions: not given
The method, then:
Compounds were evaluated using a cell based functional assay measuring cAMP through β-lactamase reporter gene activity. A stable cell line was generated from HEK-293 cells expressing a CRE β-lactamase reporter gene and transfected with human histamine H3 receptor cDNA. Cells were seeded at a density of 500,000 cells/ml, and grown overnight in MEM (Invitrogen) supplemented with 1% dialysed FBS (Sigma), 2 mM glutamine (Sigma), 1 mM sodium pyruvate (Sigma), 0.1 mM non essential amino acids (Invitrogen) and 25 mM HEPES (Sigma) in poly D lysine coated 384 well plates (BD Biosciences). […] Cells were incubated for 15 minutes plus/minus compound and their ability to permit 10 μM forskolin-stimulated cAMP synthesis in the presence of 1 nM imetit was measured as described above.
`CC(C)N1CCC(Oc2ccc(C3(CNc4ccnnc4)CCOCC3)cc2)CC1` [Example 267, N-[(4-{4-[(1-isopropylpiperidin-4-yl)oxy]phenyl}tetrahydro-2H-pyran-4-yl)methyl]pyridazin-4-amine] yielded a Ki of 5.8 nM.

Staying with this test, now noted: functional Ki from IC50 by Cheng-Prussoff; HEK-293 CRE β-lactamase cells, 10 μM forskolin, 1 nM imetit; read-out: Ki (H3 cell based assay - nM).
For the compound `CN(C)CC1(c2ccc(OCCCN3CCCC3)cc2)CCOCC1` [Example 29, Dimethyl-{4-[4-(3-pyrrolidin-1-ylpropoxy)phenyl]-tetrahydro-pyran-4-ylmethyl}amine], the Ki was determined as 0.4 nM. On the same count and under the same terms, as for `CC(C)N1CCC(Oc2ccc(C3(C(=O)N(C)C)CCOCC3)cc2)CC1` [Example 133, 4-{4-[(1-isopropylpiperidin-4-yl)oxy]phenyl}-N,N-dimethyltetrahydro-2H-pyran-4-carboxamide], the figure is 12.4 nM. Consider `Cc1csc(C2(c3ccc(OCCCN4CCCC4)cc3)CCOCC2)n1` [Example 136, 4-methyl-2-[4-(4-(3-pyrrolidin-1-ylpropoxy)phenyl)tetrahydro-2H-pyran-4-yl]-1,3-thiazole], for which the Ki was found to be 3.9 nM. Still for that read-out and setting: then `CN(C)C(=O)C1(c2ccc(OC3CCN(C4CCC4)CC3)cc2)CCOCC1` [Example 155, 4-{4-[(1-cyclobutylpiperidin-4-yl)oxy]phenyl}-N,N-dimethyltetrahydro-2H-pyran-4-carboxamide], with 1 nM. The same measure, in the same setting: then `CNC(=O)C1(c2ccc(OC3CCN(C4CCC4)CC3)cc2)CCOCC1` [Example 156, 4-{4-[(1-cyclobutylpiperidin-4-yl)oxy]phenyl}-N-methyltetrahydro-2H-pyran-4-carboxamide], with 2 nM; and `CCNC(=O)C1(c2ccc(OC3CCN(C4CCC4)CC3)cc2)CCOCC1` [Example 160, 4-{4-[(1-cyclobutylpiperidin-4-yl)oxy]phenyl}-N-ethyltetrahydro-2H-pyran-4-carboxamide], with 1.5 nM; and `O=C(N1CCCC1)C1(c2ccc(OCCCN3CCCC3)cc2)CCOCC1` [Example 187, 1-(3-{4-[4-(pyrrolidin-1-ylcarbonyl)tetrahydro-2H-pyran-4-yl]phenoxy}propyl)pyrrolidine], with 7.3 nM.

`O=C(N1CCCCC1)C1(c2ccc(OCCCN3CCCC3)cc2)CCOCC1` [Example 188, 1-({4-[4-(3-pyrrolidin-1-ylpropoxy)phenyl]-tetrahydro-2H-pyran-4-yl}carbonyl)piperidine]: the Ki was 6.8 nM. As for `O=C(N1CCC1)C1(c2ccc(OCCCN3CCCC3)cc2)CCOCC1` [Example 189, 1-(3-{4-[4-(azetidin-1-ylcarbonyl)tetrahydro-2H-pyran-4-yl]phenoxy}propyl)pyrrolidine], the Ki is 14.3 nM. Regarding `CCN(C)C(=O)C1(c2ccc(OCCCN3CCCC3)cc2)CCOCC1` [Example 190, N-ethyl-N-methyl-4-[4-(3-pyrrolidin-1-ylpropoxy)phenyl]tetrahydro-2H-pyran-4-carboxamide], the Ki is 2.4 nM.

Consider `CN(C)C(=O)C1(c2ccc(OCCCN3CCCC3)cc2)CCOCC1` [Example 191, N,N-dimethyl-4-[4-(3-pyrrolidin-1-ylpropoxy)-phenyl]tetrahydro-2H-pyran-4-carboxamide], for which the Ki stood at 10.3 nM. In the case of `c1ccc2c(c1)ncn2CC1(c2ccc(OCCCN3CCCC3)cc2)CCOCC1` [Example 196], the inhibition constant (Ki) stood at 0.6 nM.

Regarding `c1ccc(C2(c3ccc(OCCCN4CCCC4)cc3)CCOCC2)nc1` [Example 205, 2-{4-[4-(3-pyrrolidin-1-ylpropoxy)phenyl]tetrahydro-2H-pyran-4-yl}-pyridine], the Ki was 5.8 nM. Turning to `c1ncc(C2(c3ccc(OCCCN4CCCC4)cc3)CCOCC2)o1` [Example 206, 5-{4-[4-(3-pyrrolidin-1-ylpropoxy)phenyl]tetrahydro-2H-pyran-4-yl}-1,3-oxazole], the Ki came out at 12.9 nM. Still for that read-out and setting: then `CN(C)CC1(c2ccc(OCCCN3CCOCC3)cc2)CCOCC1` [Example 213, N,N-dimethyl-1-{4-[4-(3-morpholin-4-ylpropoxy)phenyl]tetrahydro-2H-pyran-4-yl}methanamine], with 2.6 nM; and `CC(C)N1CC(COc2ccc(C3(CN4CCOCC4)CCOCC3)cc2)C1` [Example 220, 4-[(4-{4-[(1-isopropylazetidin-3-yl)methoxy]phenyl}tetrahydro-2H-pyran-4-yl)methyl]morpholine], with 2.2 nM. For the compound `c1cc2c(cn1)ncn2CC1(c2ccc(OCCCN3CCCC3)cc2)CCOCC1` [Example 247, 1-({4-[4-(3-pyrrolidin-1-ylpropoxy)phenyl]tetrahydro-2H-pyran-4-yl}methyl)-1H-imidazo[4,5-c]pyridine], the Ki was determined as 3.9 nM. Same read-out and setting: as for `c1cnc2c(c1)ncn2CC1(c2ccc(OCCCN3CCCC3)cc2)CCOCC1` [Example 248, 3-({4-[4-(3-pyrrolidin-1-ylpropoxy)phenyl]tetrahydro-2H-pyran-4-yl}methyl)-3H-imidazo[4,5-b]pyridine], the figure is 0.3 nM. On the same count and under the same terms, as for `c1cnc2ncn(CC3(c4ccc(OCCCN5CCCC5)cc4)CCOCC3)c2c1` [Example 249, 1-({4-[4-(3-pyrrolidin-1-ylpropoxy)phenyl]tetrahydro-2H-pyran-4-yl}methyl)-1H-imidazo[4,5-b]pyridine], the figure is 9.7 nM; as for `c1cc(NCC2(c3ccc(OCCCN4CCCC4)cc3)CCOCC2)cnn1` [Example 250, N-({4-[4-(3-pyrrolidin-1-ylpropoxy)phenyl]tetrahydro-2H-pyran-4-yl}methyl)pyridazin-4-amine], 4.6 nM; as for `CNCC1(c2ccc(OCCCN3CCOCC3)cc2)CCOCC1` [Example 254, N-methyl-1-{4-[4-(3-morpholin-4-ylpropoxy)phenyl]tetrahydro-2H-pyran-4-yl}methanamine], 1.3 nM. As for `c1c[nH]c(C2(c3ccc(OCCCN4CCCC4)cc3)CCOCC2)n1` [Example 266, 2-{4-[4-(3-pyrrolidin-1-ylpropoxy)phenyl]tetrahydro-2H-pyran-4-yl}-1H-imidazole], the Ki was 9.7 nM.

With `c1cc(C2(CN3CCOCC3)CCOCC2)ccc1OCCCN1CCCOCC1` [Example 268, 4-(3-{4-[4-(morpholin-4-ylmethyl)tetrahydro-2H-pyran-4-yl]phenoxy}propyl)-1,4-oxazepane], the Ki was 6.5 nM.

In the case of `c1cc(C2(Cn3cnnc3)CCOCC2)ccc1OCCCN1CCCC1` [Example 272, 4-({4-[4-(3-pyrrolidin-1-ylpropoxy)phenyl]tetrahydro-2H-pyran-4-yl}methyl)-4H-1,2,4-triazole], the Ki came out at 10.8 nM. Same read-out and setting: as for `c1cc(C2(c3ccc(OCCCN4CCCC4)cc3)CCOCC2)ncn1` [Example 276, 4-{4-[4-(3-pyrrolidin-1-ylpropoxy)phenyl]tetrahydro-2H-pyran-4-yl}pyrimidine], the figure is 6.2 nM.
